Reference: a melting point compilation (Tetko et al.; mined from patent text by program, amines drawn as free bases though some values may be those of a salt)

First: CCCCCC(C(=O)O)n1cnc2cc(-c3ccccc3-c3nn[nH]n3)ccc21 (stereo not drawn)
Second: CCCCC(=O)c1ccc(-c2ccccc2)cc1
The melting point of the first is higher: 123 to 130 °C for the first, 79 to 79.5 °C for the second.

First: CC(C)(C)OC(=O)CN1C(=O)C(NC(=O)OCc2ccccc2)C1CCC(=O)O (stereo not drawn)
Second: O=C(Cc1ccccc1)N[C@H]1CN(OCc2ccccc2)C1=O
The melting point of the first is lower: 118 to 120 °C for the first, 130 to 131 °C for the second.

Compared with O=C1OCCN1CCN1CCN(Cc2ccccc2)CC1, O=C(CC1CCN(Cc2ccccc2)CC1)c1ccc(CO)cc1 is higher in melting point: 82 to 84 °C for the first, 154 to 155 °C for the second.

First: Nc1ccc(-c2ccc(Cl)cc2)c(Cl)n1
Second: COc1ccc(-c2ccc(C(N)=O)c(Cl)c2)cc1
The melting point of the first is lower: 178 to 182 °C for the first, 207 to 208 °C for the second.

First: Cc1c(C(N)=O)nnn1Cc1ccccc1Cl
Second: CCOC(=O)c1cn(OC)c2ccccc2c1=O
The melting point of the first is higher: 181 to 183 °C for the first, 120 to 121 °C for the second.

First: COc1ccc(Cn2c(=O)n([C@H]3CC[C@H](O)CC3)c3ccc(C(N)=O)cc32)cc1Cl
Second: COc1ccccc1-c1ccc(C[C@H](NC(=O)c2c(Cl)cccc2Cl)C(=O)O)cc1Cl
The melting point of the first is higher: 292 °C for the first, 131 °C for the second.

Compared with CCOC(=O)N1CCN(c2nc(C)nc3c2OCC(=O)N3)CC1, CS(=O)(=O)c1ccc(C(=O)N[C@H]2CC[C@H](CCN3CCN(c4nccc5c4CCO5)CC3)CC2)s1 is higher in melting point: 197 to 198 °C for the first, 229 °C for the second.

Compared with NS(=O)(=O)c1cccnc1N1CCSCC1, COc1ccc(N2CCN(c3ccccn3)CC2)cc1 is lower in melting point: 176 to 177 °C for the first, 126 °C for the second.

First: CCOC(=O)c1cc2c(OCc3ccccc3)c(Cc3ccccc3)ccc2[nH]1
Second: Cc1ccc(NC(=O)N(Cc2ccccc2)Cc2ccccc2)c(C)c1
The melting point of the first is higher: 129 to 131 °C for the first, 124 to 126 °C for the second.

Going from O=C(O)CN1CCN2C(=O)N(c3cc(Cl)cc(Cl)c3)C(=O)C2(Cc2ccc(Br)cc2)C1 (stereo not drawn) to O=C(C(c1ccc(Cl)cc1)c1c(Cl)cc(-n2ncc(=O)[nH]c2=O)cc1Cl)N1CCCCC1 (stereo not drawn), the melting point falls from 236 °C to 217 °C.

First: COc1ccc(-c2c(C(C)=O)c(CSc3nccn3C)nc3cc(OC)c(OC)cc23)cc1OC
Second: COc1cc(C2(O)NC(=O)c3cc(OCc4ccccc4)ccc32)cc(OC)c1OC (stereo not drawn)
The melting point of the first is lower: 175 to 176 °C for the first, 187 to 189 °C for the second.

Compared with O=C(Nc1ccc2ccccc2c1-c1c(P(c2ccccc2)c2ccccc2)ccc2ccccc12)c1ccccc1, COC(=O)c1c(-c2ccc3ccccc3c2)ccc2ccccc12 is higher in melting point: 94.8 °C for the first, 139 to 140 °C for the second.

First: Cc1c(CC(=O)O)c2cc(OCc3csc(-c4ccc(C(F)(F)F)cc4)n3)ccc2n1Cc1ccc(Cl)cc1
Second: COc1ccc(-n2ccnc2C(c2cc(F)ccc2F)S(=O)(=O)c2ccc(Cl)cc2)cc1 (stereo not drawn)
The melting point of the first is higher: 196 to 197 °C for the first, 150 to 151 °C for the second.

Compared with C/C=C1\OC(=O)c2c(Oc3nc(OC)cc(OC)n3)cccc21, COc1cc(N2C(=O)c3ccccc3C2=O)c(F)cc1C#N is higher in melting point: 163 to 165 °C for the first, 245 °C for the second.

Compared with COC(=O)c1ccc(OCCc2nc(-c3ccccc3)oc2C)cc1O, O=C(c1cc(-c2ccccc2)ccn1)N(O)Cc1ccccc1 is higher in melting point: 133 to 134 °C for the first, 160 to 165 °C for the second.

First: CCc1nc2cc(Cl)c(F)cc2c(=O)n1CCc1ccccc1
Second: CCCCc1nc2c(N)nc3cccnc3c2n1CCOc1ccccc1
The melting point of the first is lower: 150 to 152 °C for the first, 159 °C for the second.

Compared with O=C(c1ccc(I)cc1)c1ccc2[nH]c(=O)cc(-c3cccc(Cl)c3)c2c1, O=S(=O)(NCc1ccnc2ccccc12)c1ccc(-c2ccc(Cl)cc2)s1 is lower in melting point: 251 °C for the first, 185 to 186 °C for the second.

Compared with CO[C@@H]1C[C@H](C(=O)Nc2ccc(N3CCOCC3=O)cc2)N(C(=O)Nc2ccc(Cl)cc2)C1, CC(C)(C1CCCCC1)C(NC(=O)c1ccc(Cl)cc1)Nc1c(Nc2cccnc2)c(=O)c1=O (stereo not drawn) is higher in melting point: 133 °C for the first, 275 to 276 °C for the second.

First: CCN(c1ccncc1)c1ccccc1C(=O)N1CCCCC1
Second: Cc1[nH]c2ccc(F)cc2c1C(=O)NC1CCN(Cc2ccccc2)CC1
The melting point of the first is lower: 123 to 124 °C for the first, 166 to 169 °C for the second.

Compared with Cc1cccc2c(Nc3ccc(OCCN(CCCl)CCCl)cc3)c3cccc(C(=O)NCCN(C)C)c3nc12, COc1ccc(CN(C)CCc2ccc(NC(=O)c3cccc4c(=O)c5ccccc5[nH]c34)cc2)cc1OC is lower in melting point: 185 to 186 °C for the first, 172 °C for the second.

First: CC(=O)N1CCC(NC(=O)N(CCCN2CCC(Cc3ccccc3)CC2)c2ccccc2)CC1
Second: O=C(O)CCCCCCCn1nc(-c2ccccc2)c(-c2ccccc2)n1
The melting point of the first is higher: 132 to 135 °C for the first, 86 to 88 °C for the second.

Compared with CCCCOC(=O)N=C(NC(=O)c1ccccc1)SC, CCCCOC(=O)c1nc(Cl)c2ccc(OC(C)C)cc2c1O is higher in melting point: 99 to 101 °C for the first, 116 to 118 °C for the second.

First: COC(=O)C1(NC(=O)Cc2cc(Br)c(F)cc2C)CCN(OC)CC1
Second: CCOC(=O)C1=C(C)NC(=S)N(C(=O)OC)C1c1cccc([N+](=O)[O-])c1 (stereo not drawn)
The melting point of the first is higher: 192 to 193 °C for the first, 150 to 151 °C for the second.

First: O=c1[nH]ncc2ccc(OCC3CO3)cc12 (stereo not drawn)
Second: O=C(O)/C=C/n1cnc2ccc(O)cc2c1=O
The melting point of the first is lower: 164 to 166 °C for the first, 294 to 296 °C for the second.

First: Cc1ccc(N2CSC(=NCc3ccc(C(F)(F)C(F)(F)F)cc3)N(CC(F)(F)F)C2=O)cc1
Second: CC(=O)c1ccc(Cn2ccc3c4c(N)nc(N)nc4ccc32)cc1
The melting point of the first is lower: 103 to 104 °C for the first, 224 to 225 °C for the second.

First: O=c1c(CCl)csc2ccc3ccccc3c12
Second: CC(C)(C)n1nc2c(=O)[nH]c3ccccc3c2c1CO
The melting point of the first is lower: 151 to 153 °C for the first, 295 to 297 °C for the second.

First: O=CNc1nc(OCOC(=O)C2CCCC2)ncc1F
Second: NC(=O)NN=Cc1ccc(OC2CCCCCC2)cc1
The melting point of the first is lower: 76 to 79 °C for the first, 215 to 216 °C for the second.

First: CC(C)(C)NC(=O)c1nn(-c2ccc(F)cc2F)c2c1C1CC3CC(C1)CC2C3
Second: CC(N1C(=O)C(=O)N(c2ccc(F)cc2F)C1=S)C(C)(C)C (stereo not drawn)
The melting point of the first is higher: 188 to 190 °C for the first, 155 to 156 °C for the second.

Compared with COC(=O)c1ccc(N2C(=O)CCC2(CO)CCO)c([N+](=O)[O-])c1 (stereo not drawn), O=C(O)c1cc(OCc2ccccn2)c(C(=O)c2ccccc2)c([N+](=O)[O-])c1 is higher in melting point: 151 to 153 °C for the first, 224 to 225 °C for the second.

Compared with CNC(=O)NC(=O)/C(=C/C(C)C)c1ccc(Cl)c(Cl)c1, CCC(=O)Nc1cccc(C)c1C(=O)O is lower in melting point: 177 to 178 °C for the first, 152 °C for the second.

First: CC(SC1COC(c2ccc(C(=O)Nc3ccc(C(N)=O)cc3)cc2)OC1)C(O)(Cn1cncn1)c1ccc(F)cc1F (stereo not drawn)
Second: C[C@@H](n1cnc2cc(C=NNS(N)(=O)=O)ccc2c1=O)[C@](O)(Cn1cncn1)c1ccc(F)cc1F
The melting point of the first is higher: 230 °C for the first, 202 to 206 °C for the second.

First: CSC(=N)Nc1nc(C(C)(C)C)c(O)c(C(C)(C)C)n1
Second: CCOC(=O)c1c(N(C(=O)OC(C)(C)C)C(=O)OC(C)(C)C)sc(C)c1C
The melting point of the first is higher: 163 to 165 °C for the first, 70 to 78 °C for the second.

Clc1c(Cl)c(Cl)c2c(nc(Cl)n2COCCOCc2ccccc2)c1Cl and CC(C)Cn1c(CCCCNC(=O)c2ccccc2)nc2c(N)nc3ccccc3c21 cannot be ordered by melting point: 95 °C for the first, 95 to 101 °C for the second.

First: Cc1nc(Sc2ccc(C(F)(F)F)cn2)sc1CC(=O)O
Second: O=c1cnc(C(F)(F)F)cn1-c1c(Cl)cc(C(F)(F)F)cc1Cl
The melting point of the first is higher: 113 to 114 °C for the first, 109 to 111 °C for the second.

Compared with CCOC(=O)c1c(Nc2ccc(Cl)cc2)n[nH]c1C, CCCCCCOc1ccc(F)c(C(N)=O)c1Cl is lower in melting point: 223 to 225 °C for the first, 66 to 68 °C for the second.

Compared with O=C(CN1C(=O)CC1SCc1ccccc1)NCCCCCCc1ccc(F)cc1F (stereo not drawn), O=C(Nc1c(OCc2ccccc2)cc(Br)cc1[N+](=O)[O-])C(F)(F)F is higher in melting point: 65 to 66 °C for the first, 146 to 147 °C for the second.

Compared with O=c1c(Cc2ccncc2)c(-c2ccc(Cl)cc2)[nH]c2c(Br)cc(Br)cc12, COc1ccc(-c2nc(S(=O)(=O)C(C)C)[nH]c2-c2ccncc2)cc1 is higher in melting point: 198 to 200 °C for the first, 262 to 266 °C for the second.

Going from COc1ccc(-c2nc(S(=O)(=O)c3cccs3)[nH]c2-c2ccc(OC)cc2)cc1 to Cc1nc2nc(-c3ccc(C4(N)CCC4)cc3)c(-c3ccccc3)cn2n1, the melting point rises from 179 °C to 207 °C.

First: CC(C)(C)OC(=O)Nc1cc(OCC#N)c(-c2ccc(F)cc2)cc1[N+](=O)[O-]
Second: CCOC(=O)C(=CNc1ccccc1)C(=O)c1cc(F)c(Cl)c([N+](=O)[O-])c1Cl
The melting point of the first is higher: 148 °C for the first, 133 to 135 °C for the second.

Compared with CC(C)c1cccc(C(C)C)c1NC(=O)CCN1CCN(CCCSc2nc3ccccc3o2)CC1, CC(=O)OCC1CCCn2c(c(C3=C(c4cn(C)c5ccccc45)C(=O)OC3=O)c3ccccc32)C1 (stereo not drawn) is higher in melting point: 93 to 95 °C for the first, 164 to 166 °C for the second.

Compared with CCn1cc(C(=O)NCc2ccc(Cl)cc2)c(=O)c2cc(C#CCCO)sc21, S=C(NCCCN1CCCC1)NCCN(Cc1ccc(Cl)c(Cl)c1)c1ccc(Br)cn1 is lower in melting point: 158 to 162 °C for the first, 123 to 125 °C for the second.

Compared with CC12CCC(C1)C1(C)Oc3ccc(C=O)cc3C21C (stereo not drawn), CC1(C)Oc2ccc(C#N)cc2[C@@H](N2CCCC2=NC#N)[C@@H]1O (relative stereo) is higher in melting point: 145 °C for the first, 246 to 247 °C for the second.

First: Nc1nc(N)c2c(n1)CCC(c1ccccc1)C2 (stereo not drawn)
Second: O=C1[C@H]2CCC[C@H]2Nc2ccccc2N1Cc1ccc(OCc2ccccc2)cc1 (relative stereo)
The melting point of the first is higher: 223 to 226 °C for the first, 154 to 155 °C for the second.

First: CSc1c[nH]c2ncnc(Cl)c12
Second: Nc1n[nH]c(-c2cc(Cl)nc(Cl)c2)n1
The melting point of the first is lower: 166 to 167 °C for the first, 240 to 250 °C for the second.

First: CN1C(=O)c2cccnc2N(C)c2nc(-c3ccc[nH]3)ccc21
Second: Fc1cccc(F)c1-c1ncc(C=Cc2ccc(Cl)cc2)nn1
The melting point of the first is higher: 158 to 160 °C for the first, 135 to 140 °C for the second.

First: CCCCCCCCCCCCCCCCNc1ccc(C(=O)NS(=O)(=O)c2ccc(C(C)(C)C)cc2)cc1
Second: CCCCCC1C=CC(c2ccc(OC)cc2)=CC1 (stereo not drawn)
The melting point of the first is higher: 173 to 176 °C for the first, 55 °C for the second.

First: Cc1sc2c(Cl)c(Cl)c(O)cc2c1C
Second: CCC1NC(c2cc(Cl)nc(Cl)c2)=NC(=O)C1C(=O)OC (stereo not drawn)
The melting point of the first is lower: 143 to 144 °C for the first, 188 to 189 °C for the second.

Compared with CC(=O)OC1CSC(Oc2cnccc2-c2ccoc2)C(OC(C)=O)C1OC(C)=O (stereo not drawn), COc1cccc(S(=O)(=O)N2CCc3cc(O)c(OC)cc3C2)c1 is higher in melting point: 167 °C for the first, 168 to 170 °C for the second.

First: CCC(=O)Oc1ccc(N)cc1C(=O)O
Second: CN1CCC(Oc2noc3ccc(Cl)cc23)CC1
The melting point of the first is higher: 213 to 220 °C for the first, 55 to 56 °C for the second.
